Reference: PubChem BioAssay AID328 (DTP/NCI, 2004)
Where “and” joins values, the source holds several entries; their conditions need not be identical. Equal values may be shown once. Toxic doses and inconclusive results are not listed.

System: BDF1 mice, P388 leukemia ip, median survival T/C
Assay: NCI In Vivo Anticancer Drug Screen. Data for tumor model P388 Leukemia (intraperitoneal) in B6D2F1 (BDF1) mice
Settings: endpoint: median survival time, higher = longer survival
How it was run: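 Transplantable tumour in mice; compound vs vehicle dosing; survival scored; ratio of treated to control reported.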

[1] = dose: 50.0 mg/kg/injection, schedule: Q01DX009 (ip), vehicle: saline with Tween-80
[2] = dose: 100.0 mg/kg/injection, schedule: Q01DX009 (ip), vehicle: saline with Tween-80
[3] = dose: 200.0 mg/kg/injection, schedule: Q01DX009 (ip), vehicle: saline with Tween-80
[4] = dose: 100.0 mg/kg/injection, schedule: Q01DX001 (ip), vehicle: saline with Tween-80
[5] = dose: 200.0 mg/kg/injection, schedule: Q01DX001 (ip), vehicle: saline with Tween-80
[6] = dose: 400.0 mg/kg/injection, schedule: Q01DX001 (ip), vehicle: saline with Tween-80
[7] = dose: 100.0 mg/kg/injection, schedule: Q04DX003 (ip), vehicle: saline with Tween-80
[8] = dose: 200.0 mg/kg/injection, schedule: Q04DX003 (ip), vehicle: saline with Tween-80
[9] = dose: 400.0 mg/kg/injection, schedule: Q01DX009 (ip), vehicle: saline with Tween-80
[10] = dose: 400.0 mg/kg/injection, schedule: Q04DX003 (ip), vehicle: saline with Tween-80
[11] = dose: 100.0 mg/kg/injection, schedule: Q04DX003 (ip), vehicle: saline
[12] = dose: 200.0 mg/kg/injection, schedule: Q04DX003 (ip), vehicle: saline
[13] = dose: 400.0 mg/kg/injection, schedule: Q04DX003 (ip), vehicle: saline
[14] = dose: 100.0 mg/kg/injection, schedule: Q01DX009 (ip), vehicle: saline

CN1C=c2c3c(ccc2=C2C=CC4C=C5OCOC5=CC4=C21)OCO3 (stereo not given)
T/C (dose: 5.0 mg/kg/injection, schedule: Q01DX010 (ip), vehicle: saline): 110 % of control | T/C (dose: 6.25 mg/kg/injection, schedule: Q04DX003 (ip), vehicle: saline): 100 % of control | T/C (dose: 10.0 mg/kg/injection, schedule: Q01DX010 (ip), vehicle: saline): 100 % of control | T/C (dose: 12.5 mg/kg/injection, schedule: Q04DX003 (ip), vehicle: saline): 100 % of control | T/C (dose: 20.0 mg/kg/injection, schedule: Q01DX010 (ip), vehicle: saline): 105 % of control | T/C (dose: 25.0 mg/kg/injection, schedule: Q04DX003 (ip), vehicle: saline): 109 % of control

CC(=O)OCc1cc(=O)n(C)c2c3c4c(cc12)c(C)cc(=O)n4CO3
T/C (dose: 100.0 mg/kg/injection, schedule: Q01DX001 (ip), vehicle: Klucel (hydroxypropylcellulose) (HPC)): 120 % of control

COc1ccc(COC(=O)NC(CCS(C)=O)C(=O)O)cc1 (stereo not given)
T/C [1]: 91 % of control | T/C [2]: 99 % of control | T/C [3]: 99 % of control

CCOC(=O)C(N)Cc1ccc(N(CCCl)CCCl)cc1 (stereo not given)
T/C (dose: 4.0 mg/kg/injection, schedule: Q04DX003 (ip), vehicle: saline with Tween-80): 240 % of control and 245 % of control | T/C (dose: 6.0 mg/kg/injection, schedule: Q04DX003 (ip), vehicle: saline with Tween-80): 272 % of control | T/C (dose: 9.0 mg/kg/injection, schedule: Q04DX003 (ip), vehicle: saline with Tween-80): 272 % of control and 95 % of control

CC1=C(O)/C(=C\C(C)CCCC(C)/C=C/C=C(\C)CCCc2ccoc2)OC1=O (stereo not given)
T/C (dose: 5.0 mg/kg/injection, schedule: Q01DX009 (ip), vehicle: other): 98 % of control | T/C (dose: 10.0 mg/kg/injection, schedule: Q01DX009 (ip), vehicle: other): 96 % of control | T/C (dose: 20.0 mg/kg/injection, schedule: Q01DX009 (ip), vehicle: other): 97 % of control

CN1C(=O)N(C)C(=O)C(C)(C2(C)C(=O)N(C)C(=O)N(C)C2=O)C1=O
T/C [4]: 100 % of control | T/C [5]: 99 % of control | T/C [6]: 90 % of control

O=c1[nH]cnc2n[nH]nc12
T/C [2]: 108 % of control | T/C [7]: 104 % of control | T/C [3]: 124 % of control | T/C [8]: 113 % of control | T/C [9]: 100 % of control | T/C [10]: 104 % of control

Clc1ccc(C2(Cn3ccnc3)OCC(COc3ccc(-c4ccccc4)cc3)O2)c(Cl)c1 (stereo not given)
T/C [1]: 108 % of control | T/C [2]: 101 % of control | T/C [3]: 99 % of control

CC1=C(C)C(=O)c2c(OC(=O)c3ccccc3)c(Cl)cc(OC(=O)c3ccccc3)c2C1=O
T/C (dose: 25.0 mg/kg/injection, schedule: Q04DX003 (ip), vehicle: saline with Tween-80): 93 % of control | T/C (dose: 50.0 mg/kg/injection, schedule: Q04DX003 (ip), vehicle: saline with Tween-80): 92 % of control | T/C [7]: 89 % of control and 94 % of control | T/C [8]: 93 % of control | T/C [10]: 109 % of control

COCc1cnc2nc(N)nc(N)c2n1
T/C (dose: 3.13 mg/kg/injection, schedule: Q01DX009 (ip), vehicle: other): 116 % of control

O=[N+]([O-])c1ccccc1N=P(c1ccccc1)(c1ccccc1)c1ccccc1
T/C (dose: 50.0 mg/kg/injection, schedule: Q01DX009 (ip), vehicle: DMSO): 109 % of control | T/C (dose: 50.0 mg/kg/injection, schedule: Q04DX003 (ip), vehicle: DMSO): 100 % of control | T/C (dose: 100.0 mg/kg/injection, schedule: Q01DX009 (ip), vehicle: DMSO): 104 % of control | T/C (dose: 100.0 mg/kg/injection, schedule: Q04DX003 (ip), vehicle: DMSO): 104 % of control | T/C (dose: 200.0 mg/kg/injection, schedule: Q04DX003 (ip), vehicle: DMSO): 90 % of control

O=C1C2C3CC4C2C(=O)C2C1C3C42 (stereo not given)
T/C [11]: 90 % of control | T/C [12]: 102 % of control | T/C [13]: 90 % of control

CCCC(C)C(C)CC (stereo not given)
T/C (dose: 6.25 mg/kg/injection, schedule: Q01DX001 (ip), vehicle: saline with Tween-80): 91 % of control | T/C (dose: 12.5 mg/kg/injection, schedule: Q01DX001 (ip), vehicle: saline with Tween-80): 104 % of control | T/C (dose: 25.0 mg/kg/injection, schedule: Q01DX001 (ip), vehicle: saline with Tween-80): 116 % of control

O=C(NC(=O)c1c(F)cccc1F)Nc1ccc(Cl)c(Cl)c1
T/C (dose: 25.0 mg/kg/injection, schedule: Q01DX009 (ip), vehicle: saline with Tween-80): 96 % of control | T/C [1]: 97 % of control | T/C [2]: 100 % of control

NCCCOc1ccc([N+](=O)[O-])cc1Cl
T/C (dose: 25.0 mg/kg/injection, schedule: Q01DX009 (ip), vehicle: saline): 105 % of control | T/C (dose: 50.0 mg/kg/injection, schedule: Q01DX009 (ip), vehicle: saline): 105 % of control | T/C [14]: 104 % of control

C1=CC2CCC(C1)C21OCCO1 (stereo not given)
T/C [14]: 90 % of control | T/C [11]: 95 % of control | T/C (dose: 200.0 mg/kg/injection, schedule: Q01DX009 (ip), vehicle: saline): 109 % of control | T/C [12]: 104 % of control | T/C (dose: 400.0 mg/kg/injection, schedule: Q01DX009 (ip), vehicle: saline): 109 % of control | T/C [13]: 108 % of control

O=C1OI(OI2OC(=O)c3ccccc32)c2ccccc21 (tested in a mixture with another compound)
T/C (dose: 50.0 mg/kg/injection, schedule: Q01DX001 (ip), vehicle: saline with Tween-80): 101 % of control | T/C [4]: 101 % of control and 103 % of control | T/C [5]: 108 % of control and 120 % of control | T/C [6]: 117 % of control and 124 % of control

CCCCCCCC/C=C\CCCCCCCC(=O)OC
T/C [7]: 96 % of control | T/C [3]: 120 % of control | T/C [8]: 103 % of control | T/C [10]: 88 % of control

COc1cc(NC(=O)CC(C)=O)c(OC)cc1Cl
T/C [2]: 95 % of control | T/C [3]: 100 % of control | T/C [9]: 104 % of control

O=C(Cc1ccc([N+](=O)[O-])cc1)c1ccccc1
T/C (dose: 100.0 mg/kg/injection, schedule: Q04DX003 (ip), vehicle: Klucel (hydroxypropylcellulose) (HPC)): 112 % of control | T/C (dose: 200.0 mg/kg/injection, schedule: Q04DX003 (ip), vehicle: Klucel (hydroxypropylcellulose) (HPC)): 104 % of control | T/C (dose: 400.0 mg/kg/injection, schedule: Q04DX003 (ip), vehicle: Klucel (hydroxypropylcellulose) (HPC)): 91 % of control

COc1ccc2nc3cc(Cl)ccc3c(NC(C)CCCN(CCCl)CCCl)c2c1 (stereo not given)
T/C (dose: 0.17 mg/kg/injection, schedule: Q04DX003 (ip), vehicle: saline): 110 % of control | T/C (dose: 0.25 mg/kg/injection, schedule: Q01DX009 (ip), vehicle: saline): 154 % of control | T/C (dose: 0.4 mg/kg/injection, schedule: Q01DX009 (ip), vehicle: saline): 162 % of control | T/C (dose: 0.62 mg/kg/injection, schedule: Q01DX009 (ip), vehicle: saline): 159 % of control and 166 % of control | T/C (dose: 0.93 mg/kg/injection, schedule: Q01DX009 (ip), vehicle: saline): 87 % of control and 100 % of control | T/C (dose: 1.0 mg/kg/injection, schedule: Q01DX009 (ip), vehicle: saline): 118 % of control | T/C (dose: 4.0 mg/kg/injection, schedule: Q01DX009 (ip), vehicle: saline): 95 % of control | T/C (dose: 62.5 micrograms/kg/injection, schedule: Q01DX009 (ip), vehicle: saline): 95 % of control | T/C (dose: 125.0 micrograms/kg/injection, schedule: Q01DX009 (ip), vehicle: saline): 113 % of control | T/C (dose: 500.0 micrograms/kg/injection, schedule: Q01DX009 (ip), vehicle: saline): 168 % of control | T/C (dose: 1000.0 micrograms/kg/injection, schedule: Q01DX009 (ip), vehicle: saline): 150 % of control

CCOC(=O)C(C1=NC(C)(C)CC(C)O1)C(C[N+](=O)[O-])c1ccccc1 (stereo not given)
T/C (dose: 50.0 mg/kg/injection, schedule: Q01DX001 (ip), vehicle: saline sonified): 100 % of control | T/C (dose: 100.0 mg/kg/injection, schedule: Q01DX001 (ip), vehicle: saline sonified): 100 % of control | T/C (dose: 200.0 mg/kg/injection, schedule: Q01DX001 (ip), vehicle: saline sonified): 100 % of control
